Measured values: patent US6358885B1, “Substituted phenylheterocyclic herbicides” (Mississippi State University, priority 1992, dated 2002)

Key:
Test in all cases: Test B preemergence/postemergence greenhouse plant response rating 0 to 10
Details in all cases: 0 to 10 scale
[1] = tested on: barley; assay type: in vivo, Hordeum vulgare
In short: (§1)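 Postemergence treatment of plants two to eighteen cm tall ran alongside preemergence treatment of planted seed, each using compound in a non-phytotoxic solvent.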

[2] = tested on: barnyardgrass; assay type: in vivo, Echinochloa crus-galli
In short: as §1

[3] = tested on: bedstraw; assay type: in vivo, Galium aparine
In short: as §1

[4] = tested on: blackgrass; assay type: in vivo, Alopecurus myosuroides
In short: as §1

[5] = tested on: cheatgrass; assay type: in vivo, Bromus secalinus
In short: as §1

[6] = tested on: chickweed; assay type: in vivo, Stellaria media
In short: as §1

[7] = tested on: cocklebur; assay type: in vivo, Xanthium pensylvanicum
In short: as §1

[8] = tested on: corn; assay type: in vivo, Zea mays
In short: as §1

[9] = tested on: cotton; assay type: in vivo, Gossypium hirsutum
In short: as §1

[10] = tested on: crabgrass; assay type: in vivo, Digitaria spp.
In short: as §1

[11] = tested on: giant foxtail; assay type: in vivo, Setaria faberii
In short: as §1

[12] = tested on: lambsquarters; assay type: in vivo, Chenopodium album
In short: as §1

[13] = tested on: morningglory; assay type: in vivo, Ipomoea hederacea
In short: as §1

[14] = tested on: rape; assay type: in vivo, Brassica napus
In short: as §1

[15] = tested on: rice; assay type: in vivo, Oryza sativa
In short: as §1

[16] = tested on: sorghum; assay type: in vivo, Sorghum bicolor
In short: as §1

[17] = tested on: soybean; assay type: in vivo, Glycine max
In short: as §1

[18] = tested on: sugar beet; assay type: in vivo, Beta vulgaris
In short: as §1

[19] = tested on: velvetleaf; assay type: in vivo, Abutilon theophrasti
In short: as §1

[20] = tested on: wheat; assay type: in vivo, Triticum aestivum
In short: as §1

[21] = tested on: wild buckwheat; assay type: in vivo, Polygonum convolvulus
In short: as §1

[22] = tested on: wild oat; assay type: in vivo, Avena fatua
In short: as §1

[23] = tested on: purple nutsedge; assay type: in vivo, Cyperus rotundus
In short: as §1

Structure (SMILES): CC(C#N)Oc1cc(-c2nn3c(c2Cl)CCCC3)c(F)cc1Cl (centres unmarked) [Compound 60]
- Plant response rating, Barley ([1]; POSTEMERGENCE, Rate 10 g/ha): 3
- Plant response rating, Barley ([1]; POSTEMERGENCE, Rate 50 g/ha): 4
- Plant response rating, Barley ([1]; PREEMERGENCE, Rate 10 g/ha): 0
- Plant response rating, Barley ([1]; PREEMERGENCE, Rate 50 g/ha): 0
- Plant response rating, Barnyardgrass ([2]; POSTEMERGENCE, Rate 10 g/ha): 3
- Plant response rating, Barnyardgrass ([2]; POSTEMERGENCE, Rate 50 g/ha): 4
- Plant response rating, Barnyardgrass ([2]; PREEMERGENCE, Rate 10 g/ha): 0
- Plant response rating, Barnyardgrass ([2]; PREEMERGENCE, Rate 50 g/ha): 0
- Plant response rating, Bedstraw ([3]; POSTEMERGENCE, Rate 10 g/ha): 7
- Plant response rating, Bedstraw ([3]; POSTEMERGENCE, Rate 50 g/ha): 9
- Plant response rating, Bedstraw ([3]; PREEMERGENCE, Rate 50 g/ha): 6
- Plant response rating, Blackgrass ([4]; POSTEMERGENCE, Rate 10 g/ha): 3
- Plant response rating, Blackgrass ([4]; POSTEMERGENCE, Rate 50 g/ha): 3
- Plant response rating, Blackgrass ([4]; PREEMERGENCE, Rate 10 g/ha): 0
- Plant response rating, Blackgrass ([4]; PREEMERGENCE, Rate 50 g/ha): 0
- Plant response rating, Cheatgrass ([5]; POSTEMERGENCE, Rate 10 g/ha): 3
- Plant response rating, Cheatgrass ([5]; POSTEMERGENCE, Rate 50 g/ha): 3
- Plant response rating, Cheatgrass ([5]; PREEMERGENCE, Rate 10 g/ha): 0
- Plant response rating, Cheatgrass ([5]; PREEMERGENCE, Rate 50 g/ha): 2
- Plant response rating, Chickweed ([6]; POSTEMERGENCE, Rate 10 g/ha): 3
- Plant response rating, Chickweed ([6]; POSTEMERGENCE, Rate 50 g/ha): 7
- Plant response rating, Chickweed ([6]; PREEMERGENCE, Rate 50 g/ha): 4
- Plant response rating, Cocklebur ([7]; POSTEMERGENCE, Rate 10 g/ha): 6
- Plant response rating, Cocklebur ([7]; POSTEMERGENCE, Rate 50 g/ha): 8
- Plant response rating, Cocklebur ([7]; PREEMERGENCE, Rate 10 g/ha): 0
- Plant response rating, Cocklebur ([7]; PREEMERGENCE, Rate 50 g/ha): 0
- Plant response rating, Corn ([8]; POSTEMERGENCE, Rate 10 g/ha): 3
- Plant response rating, Corn ([8]; POSTEMERGENCE, Rate 50 g/ha): 3
- Plant response rating, Corn ([8]; PREEMERGENCE, Rate 50 g/ha): 0
- Plant response rating, Cotton ([9]; POSTEMERGENCE, Rate 10 g/ha): 9
- Plant response rating, Cotton ([9]; POSTEMERGENCE, Rate 50 g/ha): 10
- Plant response rating, Cotton ([9]; PREEMERGENCE, Rate 10 g/ha): 0
- Plant response rating, Cotton ([9]; PREEMERGENCE, Rate 50 g/ha): 5
- Plant response rating, Crabgrass ([10]; POSTEMERGENCE, Rate 10 g/ha): 2
- Plant response rating, Crabgrass ([10]; POSTEMERGENCE, Rate 50 g/ha): 2
- Plant response rating, Crabgrass ([10]; PREEMERGENCE, Rate 10 g/ha): 0
- Plant response rating, Crabgrass ([10]; PREEMERGENCE, Rate 50 g/ha): 0
- Plant response rating, Giant foxtail ([11]; POSTEMERGENCE, Rate 10 g/ha): 3
- Plant response rating, Giant foxtail ([11]; POSTEMERGENCE, Rate 50 g/ha): 4
- Plant response rating, Giant foxtail ([11]; PREEMERGENCE, Rate 10 g/ha): 0
- Plant response rating, Giant foxtail ([11]; PREEMERGENCE, Rate 50 g/ha): 2
- Plant response rating, Lambsquarter ([12]; POSTEMERGENCE, Rate 10 g/ha): 10
- Plant response rating, Lambsquarter ([12]; POSTEMERGENCE, Rate 50 g/ha): 10
- Plant response rating, Lambsquarter ([12]; PREEMERGENCE, Rate 50 g/ha): 9
- Plant response rating, Morningglory ([13]; POSTEMERGENCE, Rate 10 g/ha): 7
- Plant response rating, Morningglory ([13]; POSTEMERGENCE, Rate 50 g/ha): 7
- Plant response rating, Morningglory ([13]; PREEMERGENCE, Rate 50 g/ha): 3
- Plant response rating, Rape ([14]; POSTEMERGENCE, Rate 10 g/ha): 6
- Plant response rating, Rape ([14]; POSTEMERGENCE, Rate 50 g/ha): 10
- Plant response rating, Rape ([14]; PREEMERGENCE, Rate 50 g/ha): 6
- Plant response rating, Rice ([15]; POSTEMERGENCE, Rate 10 g/ha): 3
- Plant response rating, Rice ([15]; POSTEMERGENCE, Rate 50 g/ha): 4
- Plant response rating, Rice ([15]; PREEMERGENCE, Rate 50 g/ha): 1
- Plant response rating, Sorghum ([16]; POSTEMERGENCE, Rate 10 g/ha): 3
- Plant response rating, Sorghum ([16]; POSTEMERGENCE, Rate 50 g/ha): 3
- Plant response rating, Sorghum ([16]; PREEMERGENCE, Rate 50 g/ha): 2
- Plant response rating, Soybean ([17]; POSTEMERGENCE, Rate 10 g/ha): 6
- Plant response rating, Soybean ([17]; POSTEMERGENCE, Rate 50 g/ha): 4
- Plant response rating, Soybean ([17]; PREEMERGENCE, Rate 50 g/ha): 0
- Plant response rating, Sugar beet ([18]; POSTEMERGENCE, Rate 10 g/ha): 10
- Plant response rating, Sugar beet ([18]; POSTEMERGENCE, Rate 50 g/ha): 10
- Plant response rating, Sugar beet ([18]; PREEMERGENCE, Rate 50 g/ha): 9
- Plant response rating, Velvetleaf ([19]; POSTEMERGENCE, Rate 10 g/ha): 7
- Plant response rating, Velvetleaf ([19]; POSTEMERGENCE, Rate 50 g/ha): 8
- Plant response rating, Velvetleaf ([19]; PREEMERGENCE, Rate 50 g/ha): 6
- Plant response rating, Wheat ([20]; POSTEMERGENCE, Rate 10 g/ha): 3
- Plant response rating, Wheat ([20]; POSTEMERGENCE, Rate 50 g/ha): 4
- Plant response rating, Wheat ([20]; PREEMERGENCE, Rate 50 g/ha): 2
- Plant response rating, Wild buckwheat ([21]; POSTEMERGENCE, Rate 10 g/ha): 9
- Plant response rating, Wild buckwheat ([21]; POSTEMERGENCE, Rate 50 g/ha): 10
- Plant response rating, Wild buckwheat ([21]; PREEMERGENCE, Rate 50 g/ha): 7
- Plant response rating, Wild oat ([22]; POSTEMERGENCE, Rate 10 g/ha): 2
- Plant response rating, Wild oat ([22]; POSTEMERGENCE, Rate 50 g/ha): 4
- Plant response rating, Wild oat ([22]; PREEMERGENCE, Rate 50 g/ha): 3
- Plant response rating, Nutsedge ([23]; POSTEMERGENCE, Rate 10 g/ha): 1
- Plant response rating, Nutsedge ([23]; POSTEMERGENCE, Rate 50 g/ha): 2
- Plant response rating, Nutsedge ([23]; PREEMERGENCE, Rate 50 g/ha): 0
